Earlier results, collected in patent publication US20080254073A1, “Transdermal Patch Comprising Paroxetine” (IKSU PARMACEUTICAL CO., LTD., priority 2005, published 2008).

Key:
[1] = not given; remark: listed apart in the source

partition coefficient of the drug using octanol-water: 169.20±17.19
log P (octanol-water): 2.23
elimination half-life ([1]; after multiple oral administration, healthy volunteers): about 24 hours
time to reach maximum plasma concentration of the drug ([1]; oral administration, healthy volunteers): about five
influence of food or antacid on absorption ([1]; oral, administered together with food or antacid): not influenced by food or antacid
difference in the area under the plasma concentration-time curve (AUC) ([1]; oral, differences among individuals): about 35 times
Structure (SMILES): Fc1ccc([C@@H]2CCNC[C@H]2COc2ccc3c(c2)OCO3)cc1 [Paroxetine]
